This note sets out measurements from patent US20260317304A1, “TEAD INHIBITORS AND METHODS OF USE” (Sporos BioDiscovery, Inc., priority 2022, published 2026).

For one experiment, the system named is NCI-H226 cells. Nature of the experiment: Proliferation and cell viability assay, CellTiter-Glo 2.0 (CTG). In kind it is cell-based, human. The settings on record: 144 hrs. Here is the method: Cell proliferation of a TEAD dependent NF2-null mesothelioma cell line, NCI-H226 was assayed using two different protocols. Results were confirmed in two different TEAD-non-dependent lung cancer cell lines, H23 and H28, were used as non-responsive controls, as indicated:
a) CellTiter-Glo® 2.0 (Promega #G9243). The effect of the TEAD inhibitors disclosed herein on cell proliferation was determined in TEAD1-genetically dependent cell line NCI-H226 (responder cell line) and TEAD-independent cell lines (NCI-H23, HEK293T), as non-responder, negative control. Cells were seeded in 96-well plates (Thermo Scientific #167008) in growth media (RPMI-1640, Gibco #61870-010) for NCI-H226 and NCI-H23 or DMEM (Gibco #31966-021, HEK293T) with […] Heat Inactivated Fetal Bovine Serum (Gibco 10500-064) at 800 (NCI-H226 and HEK-293T) or 2000 (NCI-H23) cells per well at 37° C., […], humidified incubator; 24 hours later, fresh growth media containing test compound or DMSO vehicle was added and incubated with the cells for 144 hrs. TEAD inhibitor stocks were made at a 1000× fold excess in DMSO, and a dose response test compound dose range of 10,000 to 0.1 nM was used. Each treatment was carried out in triplicate. After 144 hrs of treatment, relative cell viability numbers were determined using the CellTiter-Glo 2.0 assay following the manufacturer's instructions. Test plates and CellTiter-Glo 2.0 reagent were allowed to equilibrate to room temperature. CellTiter-Glo 2.0 reagent was added at 1:1 reagent to media ratio to the 96-well cell plates, plates were placed on a plate shaker for 2 minutes and then incubated at room temperature for a further 10 minutes to allow complete cell lysis to occur. The mix was then transferred to white, 96-well luminometer assay plates (Greiner Bio One #655075). Luminescence was quantified using a CLARIOStar Plus multi-mode plate reader (BMG Labtech) in luminescence detection mode with the recommended settings (ultra-Glo pre-set: emission 545-50 nm with autofocus and enhanced dynamic range on). Relative cell density was expressed as a function of inhibitor concentration, with respect to DMSO-only control wells. Data where plotted using GraphPad Prism and IC50 values for the biological effect were calculated using the EC50 non-linear fit function using a sigmoidal, 4-parameter logistic, least squares fit with no constraints.
For IC50 and EC50 data “A” indicates a value of less than 0.2 μM; the symbol “B” indicates a value in the range of from 0.2 μM up to 1 μM; and the symbol “C” indicates a value of greater than 1 μM. ND: no data.
(In general: In ATP-based viability assays light output follows the ATP content of the culture.)

The subject of a further experiment is MSTO-211H cells. Kind of experiment: MSTO-211H proliferation and cell viability assay (CTG). The format is cell-based. Particulars: Homo sapiens, 144 hours. The method, then:
MSTO-211H cells were trypsinised, counted and plated at 1500 cells/well in 200 μl of growth media in 96 well flat bottom tissue culture treated plates. The plated cells were incubated overnight at 37° C., 5% CO2 before being treated with compounds in triplicate for each assay point. 50 μl of the serially diluted compound was added to each well giving a final DMSO concentration of 0.5% per well and a total volume of 250 μl per well. The treated cells were incubated for 144 hours (6 days) at 37° C., 5% CO2. Following compound treatment, the remaining viable cells were detected using the Promega CellTiter-Glo 2.0 assay as follows: 150 μl of media was removed from each of the wells to be assayed and 100 μl of room temperature CellTiter-Glo 2.0 reagent was added. The plate was placed on an orbital shaker at 500 rpm at room temperature for 2 minutes, and then incubated without shaking for a further 10 minutes at room temperature. 150 μl of cell lysate was removed from each well and dispensed into a single well of a white opaque 96 well plate. Luminescence at 545 nm was read using a BMG CLARIOstar plate reader. The luminescent signal was directly proportional to number of viable cells, the percent of viable cells relative to the DMSO control was then calculated for each assay point. Percent viability relative to DMSO control was plotted against compound concentration and a curve fitted with non-linear regression in GraphPad Prism software. EC50 and absolute IC50 values were calculated using GraphPad Prism software as follows: For EC50 values a non-constrained four-parameter logistic curve fit was used (Sigmoidal, 4PL, X is concentration). For Absolute IC50 values the baseline was constrained to Y=0 and top at 100 (Absolute IC50, X is concentration). Area Under the Curve (AUC): Prism computes area-under-the-curve by the trapezoidal method. The analysis sees a fitted curve as simply a series of connected XY points. Prism simply computes the area under the “curve” defined by connecting the points by straight lines. The units of the AUC are the units of the Y axis times units of the X axis.
For EC50 data, the symbol “A” indicates a value of less than 0.2 μM; the symbol “B” indicates a value in the range of from 0.2 μM up to 1 μM; and the symbol “C” indicates a value of greater than 1 μM.

A further experiment deals with BHY cells. Kind of experiment: BHY proliferation and cell viability assay (CTG). The format is cell-based. Particulars: 144 hours. The method, then: BHY cells were trypsinised, counted and plated at 2500 cells/well in 200 μl of growth media in 96 well flat bottom tissue culture treated plates. The plated cells were incubated overnight at 37° C., 5% CO2 before being treated with compounds in triplicate for each assay point. 50 μl of the serially diluted compound was added to each well giving a final DMSO concentration of 0.5% per well and a total volume of 250 μl per well. The treated cells were incubated for 144 hours (6 days) at 37° C., 5% CO2. Following compound treatment, the remaining viable cells were detected using the Promega CellTiter-Glo 2.0 assay as follows: 150 μl of media was removed from each of the wells to be assayed and 100 μl of room temperature CellTiter-Glo 2.0 reagent was added. The plate was placed on an orbital shaker at 500 rpm at room temperature for 2 minutes, and then incubated without shaking for a further 10 minutes at room temperature. 150 μl of cell lysate was removed from each well and dispensed into a single well of a white opaque 96 well plate. Luminescence at 545 nm was read using a BMG CLARIOstar plate reader. The luminescent signal was directly proportional to number of viable cells, the percent of viable cells relative to the DMSO control was then calculated for each assay point. Percent viability relative to DMSO control was plotted against compound concentration and a curve fitted with non-linear regression in GraphPad Prism software. EC50 and absolute IC50 values are calculated using GraphPad Prism software as follows: For EC50 values, a non-constrained four-parameter logistic curve fit was used (Sigmoidal, 4PL, X is concentration). For Absolute IC50 values the baseline was constrained to Y=0 and top at 100 (Absolute IC50, X is concentration). Area Under the Curve (AUC): Prism computes area-under-the-curve by the trapezoidal method. The analysis sees a fitted curve as simply a series of connected XY points. Prism simply computes the area under the “curve” defined by connecting the points by straight lines. The units of the AUC are the units of the Y axis times units of the X axis. […]

Setting [1] is: Homo sapiens, NCI-H226, responder cell line.

Where only a bound is given, the exact number is not on record here.

The term EC50 denotes the concentration at which the effect is half-maximal. Read a high EC50 as a less potent agent. Turning to `Cn1nnc(-c2cc([C@]3(C)CCNC3=O)ccc2Nc2ccc(C(F)(F)F)cc2)n1` (stereo in doubt) [Compound 20, 3-methyl-3-(3-(2-methyl-2H-tetrazol-5-yl)-4-((4-(trifluoromethyl)phenyl)amino)phenyl) pyrrolidin-2-one], the EC50 in the experiment with NCI-H226 cells (setting [1]) and in the experiment on MSTO-211H cells was under 0.2 µM each time.

Take `Cn1cnc(-c2cc([C@@]3(C)CCNC3=O)ccc2Nc2ccc(C(F)(F)F)cc2)c1` (single isomer, unassigned) [Compound 5, 3-methyl-3-(3-(1-methyl-1H-imidazol-4-yl)-4-((4-(trifluoromethyl)phenyl)amino)phenyl)pyrrolidin-2-one]: the EC50 in the experiment with NCI-H226 cells (setting [1]) was under 0.2 µM; in the experiment with BHY cells it was 0.2 to 1 µM; with MSTO-211H cells, under 0.2 µM.

For the compound `C=CC(=O)Nc1ccc(C)c(Oc2ccc(Cl)cc2)c1` [Compound 1-3, reference compound], the EC50 in the experiment with BHY cells and with MSTO-211H cells was under 0.2 µM throughout.

For the compound `FC(F)(F)c1ccc(CN2CCC(C3CC(Br)=NO3)CC2)cc1` (centres unmarked) [Compound 1-2, reference compound], the concentration for a half-maximal effect (EC50) with BHY cells is over 1 µM; in the experiment with MSTO-211H cells, under 0.2 µM.

Consider `Cn1cnc(-c2cc(C3(C)NC(=O)NC3=O)ccc2Nc2ccc(C(F)(F)F)cc2)c1` (single isomer, unassigned) [Compound 15, 5-methyl-5-(3-(1-methyl-1H-imidazol-4-yl)-4-((4-(trifluoromethyl)phenyl)amino)phenyl)imidazolidine-2,4-dione], for which the concentration giving a half-maximal response (EC50) with NCI-H226 cells (responder cell line) and in the experiment with MSTO-211H cells was under 0.2 µM in each case.
